Drawing on ChEMBL document CHEMBL1201862, “PubChem BioAssay data set” (2004), this text covers IC50 and EC50 for 15 compounds.

The target of assay [1] is T1, Tyrosine-protein phosphatase non-receptor type 7 (Homo sapiens, UniProt P35236).
T1 sequence (P35236 whole entry): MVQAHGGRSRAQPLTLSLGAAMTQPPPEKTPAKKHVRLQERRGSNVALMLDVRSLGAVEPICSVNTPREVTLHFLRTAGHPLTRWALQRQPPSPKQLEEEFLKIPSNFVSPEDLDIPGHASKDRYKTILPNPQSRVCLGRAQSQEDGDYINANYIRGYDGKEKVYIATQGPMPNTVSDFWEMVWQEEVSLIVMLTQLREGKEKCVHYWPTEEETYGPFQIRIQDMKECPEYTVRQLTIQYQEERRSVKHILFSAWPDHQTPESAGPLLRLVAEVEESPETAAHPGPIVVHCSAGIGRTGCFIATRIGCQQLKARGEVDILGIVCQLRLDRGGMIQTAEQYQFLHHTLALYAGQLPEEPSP
The assay can be described thus: HePTP tyrosine phosphatase activity blockers – biochemical, absorbance, leukemia target, primary screen (AID 521). It is filed as functional.

In assay [2] the target is T2, Short transient receptor potential channel 4 (Mus musculus, UniProt Q9QUQ5).
T2 sequence (Q9QUQ5 whole entry): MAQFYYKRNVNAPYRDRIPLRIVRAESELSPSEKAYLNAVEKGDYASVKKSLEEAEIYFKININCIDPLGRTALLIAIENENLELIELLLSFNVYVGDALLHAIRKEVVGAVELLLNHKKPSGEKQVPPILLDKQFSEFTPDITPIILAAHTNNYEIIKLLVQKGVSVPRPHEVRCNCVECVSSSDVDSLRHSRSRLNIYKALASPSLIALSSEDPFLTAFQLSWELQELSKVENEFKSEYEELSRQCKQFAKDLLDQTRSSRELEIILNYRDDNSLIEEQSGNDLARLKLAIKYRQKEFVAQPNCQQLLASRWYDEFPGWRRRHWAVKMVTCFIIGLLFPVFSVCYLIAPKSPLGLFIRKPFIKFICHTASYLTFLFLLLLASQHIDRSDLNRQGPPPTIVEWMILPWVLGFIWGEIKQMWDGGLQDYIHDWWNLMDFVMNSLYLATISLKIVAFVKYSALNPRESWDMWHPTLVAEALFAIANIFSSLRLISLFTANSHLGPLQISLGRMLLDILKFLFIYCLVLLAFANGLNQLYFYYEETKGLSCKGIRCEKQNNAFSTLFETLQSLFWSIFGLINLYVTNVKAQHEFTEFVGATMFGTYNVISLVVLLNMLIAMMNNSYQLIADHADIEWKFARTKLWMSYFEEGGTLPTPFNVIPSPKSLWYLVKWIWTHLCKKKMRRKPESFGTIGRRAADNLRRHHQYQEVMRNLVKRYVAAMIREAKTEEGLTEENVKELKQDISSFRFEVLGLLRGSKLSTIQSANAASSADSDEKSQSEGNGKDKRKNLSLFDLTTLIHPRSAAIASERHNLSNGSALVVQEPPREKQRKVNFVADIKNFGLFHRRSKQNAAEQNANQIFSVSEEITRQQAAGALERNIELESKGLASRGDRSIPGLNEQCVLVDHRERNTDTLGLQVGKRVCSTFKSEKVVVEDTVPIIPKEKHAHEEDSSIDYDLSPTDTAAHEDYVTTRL
The experiment in a line: block of DAMGO-driven TRPC4 calcium entry – cell-based, HEK293 TRPC4/mu-opioid, Fluo-4 calcium, dose response (AID 434942).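 Note: potency of inhibitors blocking the TRPC4 calcium response.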 It is filed as functional.

For assay [3], the target named is T3, Estrogen receptor beta (Homo sapiens, UniProt Q92731). The experiment in a line: blockers of SRC-3 recruitment to ERβ – biochemical, ELISA, streptavidin-HRP readout, orthogonal assay, confirmation (AID 1060).
Assay [4] in a line: viability of PTEN-deleted HCT116 cells – cell-based, HCT116 PTEN knockout, dose response (AID 1047).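 Note: HCT116 colon tumor cells with PTEN knocked out; cells exposed to compound for 60 hours before readout; potency for loss of cell viability measured by luminescence.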 It is filed as functional.
The target of assay [5] is T3, Estrogen receptor beta.
Assay [6] can be described thus: viability of HCT116 lacking mutant beta-catenin – cell-based, human colon tumor, dose response (AID 1045).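 Note: HCT116 colon tumor cells with beta catenin knocked out; cells exposed to compound for 60 hours.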 It counts as functional.
Assay [7] deals with T4, Estrogen receptor (Homo sapiens, UniProt P03372).
T4 sequence (P03372 whole entry): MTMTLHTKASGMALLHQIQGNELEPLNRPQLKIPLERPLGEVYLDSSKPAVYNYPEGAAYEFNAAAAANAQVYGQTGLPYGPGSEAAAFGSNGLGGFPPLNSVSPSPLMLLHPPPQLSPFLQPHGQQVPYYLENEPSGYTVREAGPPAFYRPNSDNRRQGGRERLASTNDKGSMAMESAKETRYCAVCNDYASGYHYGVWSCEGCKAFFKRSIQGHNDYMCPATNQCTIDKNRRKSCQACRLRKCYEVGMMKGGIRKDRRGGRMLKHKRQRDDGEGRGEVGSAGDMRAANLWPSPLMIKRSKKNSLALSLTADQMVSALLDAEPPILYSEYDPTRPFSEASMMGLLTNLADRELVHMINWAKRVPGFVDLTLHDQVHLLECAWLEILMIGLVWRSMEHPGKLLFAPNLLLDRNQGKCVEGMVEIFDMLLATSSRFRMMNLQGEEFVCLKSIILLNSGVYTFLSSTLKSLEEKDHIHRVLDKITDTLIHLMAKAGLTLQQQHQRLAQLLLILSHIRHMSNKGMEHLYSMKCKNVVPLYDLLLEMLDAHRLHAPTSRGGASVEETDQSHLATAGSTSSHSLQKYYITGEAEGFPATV

A short description of assay [8]: viability inhibitors of stage V gametocytes – luminescence, dose response (AID 1117278).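 Note: gametocytes exposed to compound for 24 hours.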 It counts as functional, cell-based.
Assay [9] in a line: viability loss in human Jurkat cells – cell-based, luminescence, cytotoxicity control for P. falciparum gametocyte viability project, dose response (AID 1117277).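 Note: potency reflects loss of cellular ATP meaning fewer viable cells.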 It counts as functional.
Assay [10] in a line: A cytotoxicity screen of small molecule inhibitors of the PhoP region in Salmonella typhi identified in the primary screen. [Related pubchem assays: 1850, 1864, 1985 ]. It counts as functional.
Assay [11] has as its target Eukaryotic translation initiation factor 4E (Mus musculus, UniProt P63073). The assay can be described thus: blockers of eIF4G binding by eIF4E – biochemical, TR-FRET, dose response (AID 855).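 Note: potency for disrupting eIF4E binding to eIF4GI seen as loss of FRET.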 It is filed as functional.
The target of assay [12] is T5, Mannose-6-phosphate isomerase (Homo sapiens, UniProt P34949).
T5 sequence (P34949 whole entry): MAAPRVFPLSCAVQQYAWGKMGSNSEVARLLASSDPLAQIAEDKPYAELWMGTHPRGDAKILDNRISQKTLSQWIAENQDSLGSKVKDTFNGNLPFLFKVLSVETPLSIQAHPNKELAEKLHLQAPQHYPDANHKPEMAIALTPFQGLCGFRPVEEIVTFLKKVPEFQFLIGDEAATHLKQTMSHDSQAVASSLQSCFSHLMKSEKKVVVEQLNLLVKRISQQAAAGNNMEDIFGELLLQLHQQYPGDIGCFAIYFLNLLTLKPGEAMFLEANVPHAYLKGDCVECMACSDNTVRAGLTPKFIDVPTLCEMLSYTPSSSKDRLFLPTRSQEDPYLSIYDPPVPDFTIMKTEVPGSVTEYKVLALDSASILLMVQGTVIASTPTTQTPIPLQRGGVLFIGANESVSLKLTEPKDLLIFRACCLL
The experiment in a line: MPI inhibition at elevated mannose 6-phosphate – biochemical, fluorescence intensity, high mannose 6-phosphate, primary screen (AID 1220).

In assay [13] the target is Induced myeloid leukemia cell differentiation protein Mcl-1 (Homo sapiens, UniProt Q07820). It is filed as functional.
Assay [14] can be described thus: cells. It counts as functional, cell-based.
The target of assay [15] is T6, Trace amine-associated receptor 1 (Homo sapiens, UniProt Q96RJ0).
T6 sequence (Q96RJ0 whole entry): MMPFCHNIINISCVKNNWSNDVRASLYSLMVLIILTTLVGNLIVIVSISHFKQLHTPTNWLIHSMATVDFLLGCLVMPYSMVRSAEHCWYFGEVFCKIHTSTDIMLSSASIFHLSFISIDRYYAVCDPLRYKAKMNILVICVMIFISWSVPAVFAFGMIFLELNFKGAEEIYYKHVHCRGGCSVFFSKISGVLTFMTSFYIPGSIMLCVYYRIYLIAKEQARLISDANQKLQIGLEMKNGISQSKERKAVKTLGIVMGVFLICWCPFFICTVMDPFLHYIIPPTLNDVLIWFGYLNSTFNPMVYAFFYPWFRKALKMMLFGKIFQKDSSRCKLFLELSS
The assay can be described thus: Counterscreen for agonists of the human trace amine associated receptor 1 (hTAAR1): Fluorescence-based cell-based high throughput dose response assay to identify hTAAR1 agonist that also desensitize TAAR1 receptor response. It is filed as functional. In general terms: A counterscreen serves to expose hits that act by an unwanted route or on another target.

The target in assay [16] is T6, Trace amine-associated receptor 1. The assay can be described thus: Fluorescence-based cell-based high throughput dose response assay to identify agonists of the human trace amine associated receptor 1 (TAAR1). It counts as functional.
Assay [17] in a line: cells. It counts as functional, cell-based. This is another data set of the same source.
Assay [18] addresses T7, Leucine aminopeptidase (Plasmodium falciparum 3D7, UniProt Q8IL11).
T7 sequence (Q8IL11 whole entry): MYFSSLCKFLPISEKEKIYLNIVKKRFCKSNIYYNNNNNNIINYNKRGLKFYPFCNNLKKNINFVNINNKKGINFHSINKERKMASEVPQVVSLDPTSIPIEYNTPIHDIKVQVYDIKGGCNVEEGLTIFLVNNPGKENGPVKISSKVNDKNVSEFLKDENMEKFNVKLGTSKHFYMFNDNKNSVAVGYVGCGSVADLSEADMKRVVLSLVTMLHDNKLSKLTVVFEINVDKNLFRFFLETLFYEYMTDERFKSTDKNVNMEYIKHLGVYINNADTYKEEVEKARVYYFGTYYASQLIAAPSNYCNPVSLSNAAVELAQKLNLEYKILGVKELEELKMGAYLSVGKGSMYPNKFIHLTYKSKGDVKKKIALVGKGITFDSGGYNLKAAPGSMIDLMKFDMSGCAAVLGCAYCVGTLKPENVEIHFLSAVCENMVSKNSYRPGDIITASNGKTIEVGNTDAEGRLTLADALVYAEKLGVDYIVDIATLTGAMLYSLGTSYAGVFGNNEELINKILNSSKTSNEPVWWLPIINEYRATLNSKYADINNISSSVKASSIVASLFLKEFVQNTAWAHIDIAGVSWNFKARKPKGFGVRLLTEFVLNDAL
The experiment in a line: P. falciparum M17LAP inhibitors, primary screen, biochemical, fluorogenic H-Leu-NHMec substrate, 1536-well (AID 1619). It is filed as functional.

Calls of active or inactive are those of the source. Bounds are passed on as bounds.

T3 sequence (Q92731 whole entry): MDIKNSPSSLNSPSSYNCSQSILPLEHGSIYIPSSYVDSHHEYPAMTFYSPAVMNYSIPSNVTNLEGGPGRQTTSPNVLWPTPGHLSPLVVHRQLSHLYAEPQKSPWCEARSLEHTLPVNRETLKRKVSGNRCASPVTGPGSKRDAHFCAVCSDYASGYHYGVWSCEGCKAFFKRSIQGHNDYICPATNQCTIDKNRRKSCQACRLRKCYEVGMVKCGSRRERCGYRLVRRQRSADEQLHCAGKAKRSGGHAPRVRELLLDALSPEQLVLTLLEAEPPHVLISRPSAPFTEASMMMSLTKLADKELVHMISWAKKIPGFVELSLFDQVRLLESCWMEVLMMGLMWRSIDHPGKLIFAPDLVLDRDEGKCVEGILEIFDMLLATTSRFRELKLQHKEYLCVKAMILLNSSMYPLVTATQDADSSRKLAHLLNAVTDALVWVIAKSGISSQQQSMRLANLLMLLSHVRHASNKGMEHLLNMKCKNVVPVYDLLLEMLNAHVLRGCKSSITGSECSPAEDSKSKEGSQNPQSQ
Induced myeloid leukemia cell differentiation protein Mcl-1, sequence (Q07820 whole entry): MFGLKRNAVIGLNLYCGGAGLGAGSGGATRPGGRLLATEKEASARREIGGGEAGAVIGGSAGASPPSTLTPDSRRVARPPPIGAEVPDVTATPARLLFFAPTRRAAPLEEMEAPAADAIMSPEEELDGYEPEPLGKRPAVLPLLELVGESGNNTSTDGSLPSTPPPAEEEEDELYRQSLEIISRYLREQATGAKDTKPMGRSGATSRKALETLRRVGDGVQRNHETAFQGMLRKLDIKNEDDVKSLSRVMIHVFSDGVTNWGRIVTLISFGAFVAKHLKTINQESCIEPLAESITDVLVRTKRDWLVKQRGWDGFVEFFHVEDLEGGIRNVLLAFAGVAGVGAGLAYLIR
Eukaryotic translation initiation factor 4E, sequence (P63073 whole entry): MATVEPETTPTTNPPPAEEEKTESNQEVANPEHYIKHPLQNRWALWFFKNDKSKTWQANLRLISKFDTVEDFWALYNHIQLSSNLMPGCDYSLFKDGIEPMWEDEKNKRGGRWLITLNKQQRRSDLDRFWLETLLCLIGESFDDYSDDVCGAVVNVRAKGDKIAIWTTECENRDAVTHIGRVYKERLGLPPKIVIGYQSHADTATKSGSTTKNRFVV

As to `COc1ccc(Cc2nnc(NC(=O)c3ccco3)s2)cc1OC`, in assay [1], the IC50 is recorded as > 100 µM (not active).
On to `Cn1c(=O)c2c(nc(SCc3cccnc3)n2Cc2ccc(F)cc2)n(C)c1=O`, for which the EC50 in assay [2] is 0.944 µM (active). In addition, in assay [1], the IC50 is > 100 µM (not active).
Regarding `CCOc1cccc2cc(-c3cn4cc(C)ccc4n3)c(=O)oc12`, the IC50 in assay [3] was > 50 µM (not active); in [5], > 50 µM (not active); in assay [7] it was 3.82 µM (active). In addition, the EC50 is 1.33 µM (active) in assay [4] and 2.46 µM (active) in assay [6].
On to `CCOC(=O)CSc1nc2cc3c(cc2cc1C)OCO3`, for which the values for the IC50 in assay [8] and in assay [9] were > 109 µM (inactive) and > 83.3 µM (inactive), respectively.
On to `CCN1CCCC1Cn1cnc2c3cc(Cl)ccc3nc-2c1O` (stereo not given), for which, in assay [10], the EC50 is > 50 µM (active).
Regarding `OCCN1CCN(C(c2cccs2)c2ccc3cccnc3c2O)CC1` (stereo not given), the IC50 in assay [3] is 2.82 µM (active); in assay [11], > 64 µM (inactive); in assay [12], > 50 µM (not active).
Regarding `CC(C)OC(=O)c1cccc(C(=O)Oc2ccc(Br)cc2)n1`, in [10], the EC50 was > 50 µM (active).
With `CCc1cc(C(=O)N=Nc2c(O)[nH]c3ccc([N+](=O)[O-])cc23)c2ccccc2n1`, the half-inhibitory concentration (IC50) in [13] is 6.88 µM (active).
For the compound `CC(C)CCNC(=O)c1cc2c(s1)-c1ccccc1S(=O)(=O)C2`, in [10], the EC50 was > 50 µM (active).
On to `CCn1c2ccccc2c2nnc(SCC(=O)N3CC(C)OC(C)C3)nc21` (stereo not given), for which the IC50 in assay [1] was > 100 µM (not active).
For the compound `Cc1cc(C)cc(OCc2nc(-c3cccnc3)no2)c1`, the values for the IC50 in assay [8] and in [9] were > 109 µM (inactive) and > 83.3 µM (inactive), respectively.
`CN1CCN(c2ccc(NC(=O)c3cccc(OCc4ccccc4)c3)cc2)CC1`: the IC50 in assay [3] was 0.0793 µM (not active); in [14], > 29.9 µM (inactive); in [15], 9.06 µM (active). Besides, the figures for the EC50 in [16] and in [17] were 9.36 µM (active) and > 29.9 µM (inactive), respectively.
As to `COc1ccc(-c2nc(N)n(C(=O)c3ccccc3)n2)cc1`, the IC50 in [8] was > 109 µM (inactive); in assay [9], > 83.3 µM (inactive).
As to `Cn1nnnc1SCC1=C(C(=O)O)N2C(=O)[C@@H](NC(=O)[C@H](O)c3ccccc3)[C@H]2SC1` [CEFAMANDOLE SODIUM], the IC50 was 12.1 µM (active) in assay [18] and 0.1 µM (active) in [1].
On to `O=C(c1ccco1)N1CCCN(Cc2nc(-c3ccc4c(c3)OCO4)no2)CC1`, for which, in assay [10], the EC50 is > 50 µM (active).

Broadly, the IC50 is the concentration that gives 50% inhibition. As a reminder, the EC50 is the concentration needed to bring the measured effect to its halfway point.
